Test results reported in patent US20110201558A1, “Anaplerotic Therapy for Alzheimer's Disease and the Aging Brain” (Baylor Research Institute, priority 2009, published 2011).

Experiments:
mouse brain = conditions: infusion of propionyl-CoA precursors; compared with heptanoate, BKP, or propionate; cited from earlier work
[1] = set-up: species or system human; conditions: in vivo
Description: For example, when using C7 as the source of odd-chain fatty acids these can be provided in the form of a triglyceride, e.g., tri-heptanoin. The triglyceride triheptanoin is provided in a concentration sufficient to provide a beneficial effect is most useful in this aspect of the present invention. The seven-carbon fatty acid may be provided, e.g.:
Goals have been set using 4 g/kg (within ideal body weight (IBW) range) for infants, children, and some adolescents. Goals have been set using 2 g/kg (within IBW range) for adolescents. Goals have been set using 2 g/kg (within IBW range) for adults; but toleration is 1-1.2 g per kg (which is 35% kcal of estimated needs).

[2] = tested on: patients with inherited disorders of fat and glycogen metabolism as well as pyruvate carboxylase deficiency; conditions: cited from earlier work

SMILES | anaplerosis (stimulation of the CAC and energy production) in mouse brain (mouse brain) | toleration [1] | indirect measures of energy metabolism in the brain and peripheral organs such as muscle and heart [2]
CCCCC(=O)O [pentanoate] | superior | – | –
CCCCCCC(=O)OCC(COC(=O)CCCCCC)OC(=O)CCCCCC [triheptanoin] | – | 1-1.2 g per kg | positive effects
